In PMC10423561, “Effects of the CYP3A inhibitors, voriconazole, itraconazole, and fluconazole on the pharmacokinetics of osimertinib in rats” (PeerJ, 2023):
“And” between values parts separate entries of the source, which are not always exact repeats. Identical values can stand only once.

Experiment: Stability of OSIM in rat plasma QC samples (bench-top, autosampler, freeze-thaw, long-term)
Format: in vitro ADME
Conditions: for B-LQC RE, AVERAGE / B-LQC measured concentration, AVERAGE / B-LQC RE / B-LQC measured concentration: nominal 5.02 ng/ml; for B-LQC RE, AVERAGE / B-LQC measured concentration, AVERAGE / B-MQC RE, AVERAGE / B-MQC measured concentration, AVERAGE / B-HQC RE, AVERAGE / B-HQC measured concentration, AVERAGE: average of 4; for B-LQC RE / B-LQC measured concentration / B-MQC RE / B-MQC measured concentration / B-HQC RE / B-HQC measured concentration: single replicates; for B-MQC RE, AVERAGE / B-MQC measured concentration, AVERAGE / B-MQC RE / B-MQC measured concentration: nominal 200.8 ng/ml; for B-HQC RE, AVERAGE / B-HQC measured concentration, AVERAGE / B-HQC RE / B-HQC measured concentration: nominal 401.6 ng/ml; for Relative stability: n=4
Description: Bench-top stability was tested by placing the pretreatment samples at room temperature ([…]) for 6 h, autosampler stability was assessed by placing the prepared sample in the injector for 24 h, freeze-thaw stability was determined to be adequate over at least three cycles (from −30 °C to 25 °C), and long-term stability was assessed to be at least one month before sample preparation (at −30 °C for 30 d). For all stability results, the average %RE of OSIM ranged from −11.04% to 7.48% across the three QC concentrations, with the %CV less than 6.42% (Table S4).

## C=CC(=O)Nc1cc(Nc2nccc(-c3cn(C)c4ccccc34)n2)c(OC)cc1N(C)CCN(C)C [OSIM, Osimertinib]
-30℃(30 day)
  B-LQC RE, AVERAGE: -11.04%
  B-LQC measured concentration, AVERAGE: 4.47 ng/mL
  B-LQC RE: -11.88% and -13.96% and -8.90% and -9.43%
  B-LQC measured concentration: 4.42 ng/mL and 4.32 ng/mL and 4.57 ng/mL and 4.55 ng/mL
  B-MQC RE, AVERAGE: -0.87%
  B-MQC measured concentration, AVERAGE: 199.05 ng/mL
  B-MQC RE: 4.20% and -2.59% and -1.56% and -3.53%
  B-MQC measured concentration: 209.23 ng/mL and 195.60 ng/mL and 197.67 ng/mL and 193.72 ng/mL
  B-HQC RE, AVERAGE: -1.09%
  B-HQC measured concentration, AVERAGE: 397.22 ng/mL
  B-HQC RE: -0.61% and 0.80% and -5.35%
  B-HQC measured concentration: 399.15 ng/mL and 404.80 ng/mL and 380.13 ng/mL
AUTO(24h)
  B-LQC RE, AVERAGE: -6.71%
  B-LQC measured concentration, AVERAGE: 4.68 ng/mL
  B-LQC RE: -12.78% and -6.93% and -1.98% and -5.16%
  B-LQC measured concentration: 4.38 ng/mL and 4.67 ng/mL and 4.92 ng/mL and 4.76 ng/mL
  B-MQC RE, AVERAGE: -1.60%
  B-MQC measured concentration, AVERAGE: 197.59 ng/mL
  B-MQC RE: -1.66% and 4.91% and -1.78% and -7.87%
  B-MQC measured concentration: 197.46 ng/mL and 210.66 ng/mL and 197.22 ng/mL and 184.99 ng/mL
  B-HQC RE, AVERAGE: -4.24%
  B-HQC measured concentration, AVERAGE: 384.55 ng/mL
  B-HQC RE: -2.81% and -5.55% and -7.95% and -0.66%
  B-HQC measured concentration: 390.30 ng/mL and 379.32 ng/mL and 369.66 ng/mL and 398.95 ng/mL
ROOM(6h)
  B-LQC RE, AVERAGE: 7.48%
  B-LQC measured concentration, AVERAGE: 5.40 ng/mL
  B-LQC RE: 11.63% and 8.45% and 4.43% and 5.39%
  B-LQC measured concentration: 5.60 ng/mL and 5.44 ng/mL and 5.24 ng/mL and 5.29 ng/mL
  B-MQC RE, AVERAGE: 5.16%
  B-MQC measured concentration, AVERAGE: 211.16 ng/mL
  B-MQC RE: 7.61% and 11.08% and 3.27% and -1.32%
  B-MQC measured concentration: 216.07 ng/mL and 223.04 ng/mL and 207.36 ng/mL and 198.15 ng/mL
  B-HQC RE, AVERAGE: -3.51%
  B-HQC measured concentration, AVERAGE: 387.49 ng/mL
  B-HQC RE: -6.10% and -7.91% and 2.69% and -2.75%
  B-HQC measured concentration: 377.12 ng/mL and 369.84 ng/mL and 412.42 ng/mL and 390.57 ng/mL
After RTF(-30℃30 day)
  B-LQC RE, AVERAGE: 6.03%
  B-LQC measured concentration, AVERAGE: 5.32 ng/mL
  B-LQC RE: -1.95% and 2.78% and 10.68% and 12.61%
  B-LQC measured concentration: 4.92 ng/mL and 5.16 ng/mL and 5.56 ng/mL and 5.65 ng/mL
  B-MQC RE, AVERAGE: -2.85%
  B-MQC measured concentration, AVERAGE: 195.09 ng/mL
  B-MQC RE: -3.40% and 0.97% and -3.10% and -5.85%
  B-MQC measured concentration: 193.98 ng/mL and 202.74 ng/mL and 194.57 ng/mL and 189.05 ng/mL
  B-HQC RE, AVERAGE: -9.46%
  B-HQC measured concentration, AVERAGE: 363.62 ng/mL
  B-HQC RE: -9.22% and -10.28% and -11.32% and -7.01%
  B-HQC measured concentration: 364.57 ng/mL and 360.31 ng/mL and 356.15 ng/mL and 373.44 ng/mL
Prepared sample in autosampler for 24 h, range over LQC/MQC/HQC
  Relative stability: 94.15-103.09%
Rat plasma, long-term at −30 °C for 30 days, range over LQC/MQC/HQC
  Relative stability: 88.96-98.91%
Rat plasma, room temperature for 6 h, range over LQC/MQC/HQC (5, 200, 400 ng/mL)
  Relative stability: 96.49-107.48%
Rat plasma, three freeze-thaw cycles (−30 °C to 25 °C), range over LQC/MQC/HQC
  Relative stability: 90.54-106.03%
